Measured values reported in patent US9718790B2, “Triazine derivative and pharmaceutical composition having an analgesic activity comprising the same” (SHIONOGI & CO., LTD., priority 2010, dated 2017).

Molecular target: human P2X3 receptor (Homo sapiens (Human), UniProt P56373)
Assay: Evaluation of human P2X3 receptor inhibitory activity (Fluo-3 calcium fluorescence, FDSS 3000, ATP stimulation);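 further: stimulus was 50 nM ATP with fluorescence followed for 3 min, and the response per well was peak post-ATP fluorescence divided by the reading at measurement start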
Type: cell-based
Settings: C6BU-1 cells stably expressing human P2X3 receptor, Fluo-3 fluorescence, FDSS 3000

Sequence of human P2X3 receptor (P56373 whole entry): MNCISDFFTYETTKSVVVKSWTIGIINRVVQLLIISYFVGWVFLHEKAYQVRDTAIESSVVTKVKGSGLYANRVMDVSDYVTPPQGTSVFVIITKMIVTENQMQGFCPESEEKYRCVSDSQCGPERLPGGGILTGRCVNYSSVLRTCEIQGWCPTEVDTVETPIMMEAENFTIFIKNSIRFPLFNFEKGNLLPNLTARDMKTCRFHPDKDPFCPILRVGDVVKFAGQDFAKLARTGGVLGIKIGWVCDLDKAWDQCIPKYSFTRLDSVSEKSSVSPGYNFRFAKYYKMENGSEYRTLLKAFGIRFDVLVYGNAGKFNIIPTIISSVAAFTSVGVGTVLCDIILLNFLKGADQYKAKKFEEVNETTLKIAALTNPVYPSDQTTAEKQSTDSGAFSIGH

Structure (SMILES)	IC50 [nM]
CCOC(=O)CCn1c(=O)[nH]/c(=N\c2ccc(O[C@H](C)CC)c(C)c2)n(Cc2ccc(C)cc2)c1=O [Compound I-1019]	7
CCOC(=O)CCn1c(=O)[nH]/c(=N\c2ccc(O[C@H](C)CC)c(Cl)c2)n(Cc2ccc(C)cc2)c1=O [Compound I-1020]	6
CCOC(=O)CCn1c(=O)[nH]/c(=N\c2ccc(O[C@H](C)C(F)(F)F)cc2)n(Cc2ccc(C)cc2)c1=O [Compound I-1021]	7
COC(=O)[C@@H](C)Cn1c(=O)[nH]/c(=N\c2ccc(OC(F)F)c(Cl)c2)n(Cc2ccc(C)cc2)c1=O [Compound I-1022]	14
COC(=O)[C@@H](C)Cn1c(=O)[nH]/c(=N\c2ccc(CCC3CC3)c(C)c2)n(Cc2ccc(Cl)cc2)c1=O [Compound I-1023]	300
Cc1cc(/N=c2\[nH]c(=O)n(C[C@H](C)C(=O)O)c(=O)n2Cc2ccc(Cl)cc2)ccc1CCC1CC1 [Compound I-1024]	161
COC(=O)[C@@H](C)[C@H](C)n1c(=O)[nH]/c(=N\c2ccc(OC(C)C)c(C)c2)n(Cc2ccc(Cl)cc2)c1=O [Compound I-1025]	134
Cc1cc(/N=c2\[nH]c(=O)n([C@@H](C)[C@H](C)C(=O)O)c(=O)n2Cc2ccc(Cl)cc2)ccc1OC(C)C [Compound I-1026]	182
COC(=O)[C@@H](C)Cn1c(=O)[nH]/c(=N\c2ccc(OC(F)(F)F)c(Cl)c2)n(Cc2ccc(C)cc2)c1=O [Compound I-1027]	41
CC[C@@H](C)Oc1ccc(/N=c2\[nH]c(=O)n(CCC(=O)O)c(=O)n2Cc2ccc(C)cc2)cc1 [Compound I-1028]	78
CC[C@@H](C)Oc1ccc(/N=c2\[nH]c(=O)n(CCC(=O)O)c(=O)n2Cc2ccc(C)cc2)cc1C [Compound I-1029]	35
CC[C@@H](C)Oc1ccc(/N=c2\[nH]c(=O)n(CCC(=O)O)c(=O)n2Cc2ccc(C)cc2)cc1Cl [Compound I-1030]	14
Cc1ccc(Cn2c(=O)n(CCC(=O)O)c(=O)[nH]/c2=N\c2ccc(O[C@H](C)C(F)(F)F)cc2)cc1 [Compound I-1031]	64
Cc1ccc(Cn2c(=O)n(C[C@H](C)C(=O)O)c(=O)[nH]/c2=N\c2ccc(OC(F)F)c(Cl)c2)cc1 [Compound I-1032]	33
Cc1ccc(Cn2c(=O)n(C[C@H](C)C(=O)O)c(=O)[nH]/c2=N\c2ccc(OC(F)(F)F)c(Cl)c2)cc1 [Compound I-1033]	67
CCCOc1ccc(/N=c2\[nH]c(=O)n(C[C@@H](C)C(=O)OC)c(=O)n2Cc2ccc(Cl)cc2)cc1 [Compound I-1034]	5
CCCOc1ccc(/N=c2\[nH]c(=O)n(C[C@@H](C)C(=O)O)c(=O)n2Cc2ccc(Cl)cc2)cc1 [Compound I-1035]	65
COC(=O)[C@H](C)Cn1c(=O)[nH]/c(=N\c2ccc(OCC3CC3)cc2)n(Cc2ccc(Cl)cc2)c1=O [Compound I-1036]	5
C[C@H](Cn1c(=O)[nH]/c(=N\c2ccc(OCC3CC3)cc2)n(Cc2ccc(Cl)cc2)c1=O)C(=O)O [Compound I-1037]	93
CCCOc1ccc(/N=c2\[nH]c(=O)n(C[C@@H](CC)C(=O)OC)c(=O)n2Cc2ccc(Cl)cc2)cc1 [Compound I-1038]	6
CCCOc1ccc(/N=c2\[nH]c(=O)n(C[C@@H](CC)C(=O)O)c(=O)n2Cc2ccc(Cl)cc2)cc1 [Compound I-1039]	83

Structure (SMILES)	IC50 [nM]
CCSc1ccc(/N=c2\[nH]c(=O)n(C[C@H](C)C(=O)OC)c(=O)n2Cc2ccc(Cl)cc2)cc1C [Compound I-1040]	128
COC(=O)[C@@H](C)Cn1c(=O)[nH]/c(=N\c2ccc(C#CC3CC3)c(C)c2)n(Cc2ccc(Cl)cc2)c1=O [Compound I-1041, (S)-1-(4-chlorobenzyl)-6-(3-mehyl-4-cyclopropylethynylphenylimino)-3-(2-methoxycarbonylpropyl)-1,3,5-triazinane-2,4-dion]	101
Cc1cc(/N=c2\[nH]c(=O)n(C[C@H](C)C(=O)O)c(=O)n2Cc2ccc(Cl)cc2)ccc1C#CC1CC1 [Compound I-1042]	148
COC(=O)[C@@H](C)Cn1c(=O)[nH]/c(=N\c2ccc(CC(C)C)c(C)c2)n(Cc2ccc(C)cc2)c1=O [Compound I-1043]	10
Cc1ccc(Cn2c(=O)n(C[C@H](C)C(=O)O)c(=O)[nH]/c2=N\c2ccc(CC(C)C)c(C)c2)cc1 [Compound I-1044]	19
CC[C@H](C)COc1ccc(/N=c2\[nH]c(=O)n(C[C@H](C)C(=O)OC)c(=O)n2Cc2ccc(C)cc2)cc1 [Compound I-1045]	159
CCC[C@H](C)Oc1ccc(/N=c2\[nH]c(=O)n(C[C@H](C)C(=O)OC)c(=O)n2Cc2ccc(C)cc2)cc1 [Compound I-1046]	28
CCC[C@@H](C)Oc1ccc(/N=c2\[nH]c(=O)n(C[C@H](C)C(=O)OC)c(=O)n2Cc2ccc(C)cc2)cc1 [Compound I-1047]	154
CCC(CC)Oc1ccc(/N=c2\[nH]c(=O)n(C[C@H](C)C(=O)OC)c(=O)n2Cc2ccc(C)cc2)cc1 [Compound I-1048]	38
COC(=O)[C@@H](C)Cn1c(=O)[nH]/c(=N\c2ccc(OCCC(C)C)cc2)n(Cc2ccc(C)cc2)c1=O [Compound I-1049]	177
COC(=O)[C@@H](C)Cn1c(=O)[nH]/c(=N\c2ccc(OCC(C)(C)C)cc2)n(Cc2ccc(C)cc2)c1=O [Compound I-1050]	389
CCOC(=O)CCn1c(=O)[nH]/c(=N\c2ccc(OC[C@@H](C)CC)cc2)n(Cc2ccc(C)cc2)c1=O [Compound I-1051]	100
CCC[C@H](C)Oc1ccc(/N=c2\[nH]c(=O)n(CCC(=O)OCC)c(=O)n2Cc2ccc(C)cc2)cc1 [Compound I-1052]	19
CCC[C@@H](C)Oc1ccc(/N=c2\[nH]c(=O)n(CCC(=O)OCC)c(=O)n2Cc2ccc(C)cc2)cc1 [Compound I-1053]	79
CCOC(=O)CCn1c(=O)[nH]/c(=N\c2ccc(OC(CC)CC)cc2)n(Cc2ccc(C)cc2)c1=O [Compound I-1054]	18
CCOC(=O)CCn1c(=O)[nH]/c(=N\c2ccc(OCCC(C)C)cc2)n(Cc2ccc(C)cc2)c1=O [Compound I-1055]	91
CCOC(=O)CCn1c(=O)[nH]/c(=N\c2ccc(OCC(C)(C)C)cc2)n(Cc2ccc(C)cc2)c1=O [Compound I-1056]	177
CCCCCOc1ccc(/N=c2\[nH]c(=O)n(C[C@H](C)C(=O)OC)c(=O)n2Cc2ccc(C)cc2)cc1 [Compound I-1057]	89
CCCCCOc1ccc(/N=c2\[nH]c(=O)n(CCC(=O)OCC)c(=O)n2Cc2ccc(C)cc2)cc1 [Compound I-1058]	43
CC[C@H](C)COc1ccc(/N=c2\[nH]c(=O)n(C[C@H](C)C(=O)O)c(=O)n2Cc2ccc(C)cc2)cc1 [Compound I-1059]	123
CCC[C@H](C)Oc1ccc(/N=c2\[nH]c(=O)n(C[C@H](C)C(=O)O)c(=O)n2Cc2ccc(C)cc2)cc1 [Compound I-1060]	29

Structure (SMILES)	IC50 [nM]
CCC[C@@H](C)Oc1ccc(/N=c2\[nH]c(=O)n(C[C@H](C)C(=O)O)c(=O)n2Cc2ccc(C)cc2)cc1 [Compound I-1061]	174
CCC(CC)Oc1ccc(/N=c2\[nH]c(=O)n(C[C@H](C)C(=O)O)c(=O)n2Cc2ccc(C)cc2)cc1 [Compound I-1062]	37
Cc1ccc(Cn2c(=O)n(C[C@H](C)C(=O)O)c(=O)[nH]/c2=N\c2ccc(OCCC(C)C)cc2)cc1 [Compound I-1063]	152
Cc1ccc(Cn2c(=O)n(C[C@H](C)C(=O)O)c(=O)[nH]/c2=N\c2ccc(OCC(C)(C)C)cc2)cc1 [Compound I-1064]	257
CCCCCOc1ccc(/N=c2\[nH]c(=O)n(C[C@H](C)C(=O)O)c(=O)n2Cc2ccc(C)cc2)cc1 [Compound I-1065]	85
CC[C@H](C)COc1ccc(/N=c2\[nH]c(=O)n(CCC(=O)O)c(=O)n2Cc2ccc(C)cc2)cc1 [Compound I-1066]	425
CCC[C@H](C)Oc1ccc(/N=c2\[nH]c(=O)n(CCC(=O)O)c(=O)n2Cc2ccc(C)cc2)cc1 [Compound I-1067]	93
CCC(CC)Oc1ccc(/N=c2\[nH]c(=O)n(CCC(=O)O)c(=O)n2Cc2ccc(C)cc2)cc1 [Compound I-1069]	111
Cc1ccc(Cn2c(=O)n(CCC(=O)O)c(=O)[nH]/c2=N\c2ccc(OCCC(C)C)cc2)cc1 [Compound I-1070]	471
Cc1ccc(Cn2c(=O)n(CCC(=O)O)c(=O)[nH]/c2=N\c2ccc(OCC(C)(C)C)cc2)cc1 [Compound I-1071]	998
CCCCCOc1ccc(/N=c2\[nH]c(=O)n(CCC(=O)O)c(=O)n2Cc2ccc(C)cc2)cc1 [Compound I-1072]	252
COC(=O)[C@@H](C)Cn1c(=O)[nH]/c(=N\c2ccc(OC3CCOCC3)cc2)n(Cc2ccc(C)cc2)c1=O [Compound I-1073]	92
Cc1ccc(Cn2c(=O)n(C[C@H](C)C(=O)O)c(=O)[nH]/c2=N\c2ccc(OC3CCOCC3)cc2)cc1 [Compound I-1074]	86
COC(=O)[C@@H](C)Cn1c(=O)[nH]/c(=N\c2ccc(Br)cc2)n(Cc2ccc(C)cc2)c1=O [Compound I-1076]	177
COC(=O)[C@@H](C)Cn1c(=O)[nH]/c(=N\c2cccc(Br)c2)n(Cc2ccc(C)cc2)c1=O [Compound I-1077]	64
COC(=O)[C@@H](C)Cn1c(=O)[nH]/c(=N\c2ccc(C3=CCCCC3)cc2)n(Cc2ccc(C)cc2)c1=O [Compound I-1078]	218
COC(=O)[C@@H](C)Cn1c(=O)[nH]/c(=N\c2ccc(OC(C)C)cc2)n(Cc2ccc(I)cc2)c1=O [Compound I-1080]	66
COC(=O)[C@H](C)[C@H](C)n1c(=O)[nH]/c(=N\c2ccc(OC(C)C)cc2)n(Cc2ccc(C)cc2)c1=O [Compound I-1081]	30
Cc1ccc(Cn2c(=O)n([C@@H](C)[C@@H](C)C(=O)O)c(=O)[nH]/c2=N\c2ccc(OC(C)C)cc2)cc1 [Compound I-1082]	63
COC(=O)[C@@H](C)Cn1c(=O)[nH]/c(=N\c2ccc(C3=CCCC3)cc2)n(Cc2ccc(C)cc2)c1=O [Compound I-1083]	125
COC(=O)[C@@H](C)Cn1c(=O)[nH]/c(=N\c2cccc(C3=CCCC3)c2)n(Cc2ccc(C)cc2)c1=O [Compound I-1084]	392
